# Assay results as given in US12458643B2, “Antidepressant/anxiolytic drug in which PAC1 receptor antagonist is used” (KAGOSHIMA UNIVERSITY, priority 2020, dated 2025).
# Assays:
# [1] = system: chronic social defeat stress mice; experiment: Chronic social defeat stress, social preference or avoidance test (SPAT); assay type: in vivo, mouse; conditions: for effect on chronic social defeat stress-induced social behavioral abnormality (SPAT): 30 mg/kg i.p. once daily for 7 consecutive days, SPAT 30 min after final administration (Day 18); for sustained effect on social behavioral abnormality (social interaction ratio) / effect on social behavioral abnormality (social interaction ratio): Example 18; for sustained effect on social behavioral abnormality (social interaction ratio): 7, 14, 28 days after single i.p. dose (PA-915 30 mg/kg, ketamine 20 mg/kg), fluoxetine 20 mg/kg i.p. 14-day consecutive administration; for effect on social behavioral abnormality (social interaction ratio): single i.p. dose (PA-915 30 mg/kg, ketamine 20 mg/kg, fluoxetine 20 mg/kg), 60 minutes later (Day 12)
# Excerpt: When male C57BL/6N mice (8 to 12 weeks old) are allowed to coexist with ICR mice having a large physical size, the male C57BL/6N mice run about in the beginning in order to avoid attack by the ICR mice, but eventually make a posture to immediately raise their forelegs and accept defeats (obedience) by repeated load for 5 days to 10 days (chronic social defeat stress (SDS) load).
# The social preference or avoidance test (SPAT) is a test that has received attention in recent years as a highly extrapolatable antidepressant drug screening system. SPAT evaluates the degree of interest in others (sociality). A box (which has a wired contact surface) is disposed in an open field. A time of contact with a target (time spent in an interaction zone) and a time spent in an avoidance zone are measured without the target (ICR mice) placed in the box in the first run and with the target (ICR mice) placed in the box in the second run. Time spent in the second run/Time spent in the first run is calculated (social interaction ratio). The social interaction ratio is decreased in chronic social defeat stress mice. Stress susceptibility differs among individuals, and susceptible individuals (social interaction ratio <1) and resilient individuals (social interaction ratio 1) are found.
# (§1) Chronic social defeat stress was applied at 10 min/day for 10 days (Days 1 to 10) to male C57BL/6N mice (8 to 12 weeks old) each reared in isolation for 10 days or longer. On Day 11, the social preference or avoidance test (SPAT) was conducted, and susceptible mice were selected. A vehicle (10% DMSO solution; dissolved in saline; n=12) or PA-8 (30 mg/kg; n=9) was intraperitoneally administered once daily (0.1 mL/10 g) for 7 consecutive days from day 12. SPAT was conducted for 150 seconds 30 minutes after the final administration on the 7th day (Day 18). Mice reared for 10 days in a home cage without chronic social defeat stress load were used as a control (n=12). The results are shown in FIG. 15 (A: social interaction ratio, B: time spent in the interaction zone, C: time spent in the avoidance zone). The data was indicated by mean±standard error. *P<0.05 (One-way ANOVA followed by Tukey-Kramer test).
# as §1, with “or PA-9” for “or PA-8”, “FIG. 17” for “FIG. 15”, “zone). […]” for “zone).”
# Chronic social defeat stress was applied at 10 min/day for 10 days (Days 1 to 10) to male C57BL/6N mice (8 to 12 weeks old) each reared in isolation for 10 days or longer. On Day 11, the social preference or avoidance test (SPAT) was conducted, and susceptible mice were selected. On the next day (Day 12), a vehicle (10% DMSO solution; dissolved in saline; n=17) or PA-915 (30 mg/kg; n=17) was intraperitoneally administered (0.1 mL/10 g) to the mice. SPAT was conducted for 150 seconds 60 minutes later. Mice reared for 10 days in a home cage without chronic social defeat stress load were used as a control (n=22). The results are shown in FIG. 19 (A: social interaction ratio, B: time spent in the interaction zone, C: time spent in the avoidance zone). […] The data was indicated by mean±standard error. **P<0.01; *P<0.05 (One-way ANOVA followed by Tukey-Kramer test). […]
# normal mice = experiment: Light-dark test in normal mice; assay type: in vivo, mouse; conditions: normal male C57BL/6J mice, 30 mg/kg i.p., 60 min after administration, 10 min test
# Procedure: The effects of PA-8 and PA-81004 on normal mice were evaluated by a light-dark test (test to measure spontaneous locomotion by exploiting the properties of mice to avoid light environments, and placing the mice in a light box and a dark box joined together (each 20 cm×20 cm, height: 30 cm); in this test, anxiety-like behavior is evaluated by measuring times spent in the light box and the dark box and the number of transitions between the light box and the dark box).
# (§2) Male C57BL/6J mice (8 to 12 weeks old) were acclimatized to a laboratory for 60 minutes. Then, a vehicle (10% DMSO solution; dissolved in saline; n=13), PA-8 (30 mg/kg; n=12) or PA-81004 (30 mg/kg; n=12) was intraperitoneally administered thereto (0.1 mL/10 g). After a lapse of 60 minutes after administration, the test was conducted for 10 minutes. The results are shown in FIG. 2 (A: time spent in the light box, B: the number of transitions between the light and dark boxes; light box illuminance: 330 lx).
# The effects of PA-9 and PA-915 on normal mice were evaluated by the light-dark test.
# as §2, with “laboratory (illuminance: 330 lx)” for “laboratory”, “saline; n=12), PA-9” for “saline; n=13), PA-8”, “mg/kg; n=10)” for “mg/kg; n=12)”, “or PA-915” for “or PA-81004”, “FIG. 6” for “FIG. 2”
Compound,effect on chronic social defeat stress-induced social behavioral abnormality (SPAT) [1],"pharmacological action in light-dark test (time in light box, transitions) (normal mice)",sustained effect on social behavioral abnormality (social interaction ratio) [1],effect on social behavioral abnormality (social interaction ratio) [1]
C=CCOc1ccc(C2CC(=O)Nc3nc(N)[nH]c(=O)c32)cc1OC (stereo not drawn) [PA-8],improving effect,no pharmacological action,,
O=C(NCCc1c[nH]cn1)C1CC(=O)N(c2n[nH]c3ccccc23)C1 (stereo not drawn) [PA-9],tended to improve social behavioral abnormality,no pharmacological action,,
"Nc1nc2c(c(=O)[nH]1)C(c1cccc(OC(F)(F)F)c1)CC(=O)N2 (stereo not drawn) [PA-81004, 2-Amino-5-(3-trifluoromethoxyphenyl)-5,8-dihydro-3H,6H-pyrido[2,3-d]pyrimidine-4,7-dione]",,no pharmacological action,,
CNC1(c2ccccc2Cl)CCCCC1=O (stereo not drawn) [ketamine],,,"maintained its effectiveness 7, 14, and 28 days later",improved social behavioral abnormality
CNCCC(Oc1ccc(C(F)(F)F)cc1)c1ccccc1 (stereo not drawn) [fluoxetine],,,neither the single-dose administration nor 14-day consecutive administration of fluoxetine improved social behavioral abnormality,neither the single-dose administration nor 14-day consecutive administration of fluoxetine improved social behavioral abnormality
